Entries after “also recorded” stand apart in the source; their conditions may differ. Structures can show the parent of a compound that is named as a salt.
Tests used:
rats [1] = test: Withdrawal response to pinprick at the hindpaw after intrathecal injection; format: in vivo; conditions: rat
Protocol: (§1) Rats were tested before 15 minutes through 240 minutes after intrathecal injection of 5 nmoles (in 10 μl) of 6-[2-(1(2)H-tetrazole-5-yl)ethyl]decahydroisoquinolone-3-carboxylic acid. Sensory function was tested at the hindpaw using withdrawal response to pinprick and withdrawal to pinch with a sharp forceps. Motor performance (ambulation, the placing reflex and Rotarod time), blood pressure and heart rate was also evaluated. Some tests were repeated the next day. Responses after 6-[2-(1(2)H-tetrazole-5-yl)ethyl]decahydroisoquinolone-3-carboxylic acid were compared to injection of 40 μl of bupivacaine, 0.75%. Pinprick responses at the forepaw, chest, abdomen, hindleg and hindpaw were also examined after intrathecal 6-[2-(1(2)H-tetrazole-5-yl)ethyl]decahydroisoquinolone-3-carboxylic acid.
Rats were anesthetized with halothane. The lumbar region was shaved, prepared with povidone-iodine, made kyphotic and incised 2 to 3 cm longitudinally in the midline at the level of the iliac crests. The space between the 5th and 6th lumbar vertebrae was punctured with 23G hypodermic needle and a 32G PU catheter (10 cm length, OD 0.0107 inches and ID 0.005 inches) reinforced with a Teflon coated stainless steel stylet (0.003 inches) was advanced through the needle cranially. The needle and the stylet were removed and the catheter withdrawn so that 6.5-7 cm extended outside of the lumbar masculature. The catheter was fixed to the fascia, sutured, inserted into an 8 cm length of PE-10 tubing and secured with glue covered with epoxy. The catheter was tunneled under the skin to the cervical region, flushed with saline and sealed with a cautery pen. The dead space of the catheter was 4.5 to 5 μl. The skin was closed and the rat was allowed to recover from anesthesia for 2-3 days.
First, the withdrawal response to pinprick was tested on each hindpaw. A 5 mm long tip of a safety pin attached to a von Frey filament (520 mN) was applied once to the plantar aspect of each hindpaw. Either a withdrawal response or a reaction occurred (1=positive response) or no withdrawal (0=no response). The sum of the scores (0, 1 or 2) for each rat was recorded. If no response or reaction was elicited by pinprick, a serrated dissecting forceps was used to pinch the skin of the plantar region for 2-3 sec. Again, withdrawal or reaction was considered a positive response (score=1) and the absence of both a negative test (score=0). […] Because the response to pinch was quite vigorous and rats were subjected to repeated tests in a single day, only rats unresponsive to pinprick were tested for pinch. If pinprick evoked a response, pinch was designated as positive also. The sum of the scores after pinch (0, 1 or 2) was recorded.
(§2) The dose and volume of drugs injected intrathecally were determined from the dose required to produce hindlimb sensory and motor loss in preliminary experiments. Bupivacaine HCl (0.75% in 8.25% dextrose for spinal injection) was purchased from Abbott Laboratories (Chicago, Ill.). The intrathecal injection volume was 40 μl. The compound was dissolved in 10% dextrose and water. The injection volume was 1 ul. All intrathecal drug injections were followed by a flush of 10 μl preservative-free saline.

rats [2] = test: Mean arterial pressure and heart rate via carotid artery catheter after intrathecal injection; format: in vivo; conditions: rat
Protocol: as §1
For blood pressure measurement, the paratracheal region was shaved, prepared with povidone-iodine, and incised 1.5-2 cm longitudinally lateral to the midline. The carotid artery was isolated and cannulated with PE-50 tubing that had been stretched by exposing the distal end to heat. The catheter secured and tunneled subcutaneously to the posterior neck region. The skin was closed with 4-0 silk and the rat was allowed to recover for 2-3 days before experiments began.
The mean arterial pressure and heart rate were measured using the carotid artery catheter attached to a pressure transducer relayed to a polygraph and preamplifier (Grass, Quincy, Mass). Heart rate was intermittently measured by counting the arterial pulse wave for 30 seconds.
as §2

rats [3] = test: Segmental pinprick testing at hindpaw, hindleg, abdomen, chest and forepaw after intrathecal injection; format: in vivo; conditions: rat
Protocol: as §1
In a separate group of rats (n=5), the response to pinprick was tested once on the left hindpaw, the left hindleg, the lower abdomen, the chest and the left forepaw in rats injected with intrathecal 6-[2-(1(2)H-tetrazole-5-yl)ethyl]decahydroisoquinolone-3-carboxylic acid. Withdrawal, muscle contraction, or attempted escape reaction to pinprick was considered a positive test whereas their absence was considered a negative response. This test was not blinded.

rats [4] = test: Withdrawal response to pinprick after infiltration into the left hind paw; format: in vivo; conditions: rat
Protocol: Withdrawal response to pinprick were also tested before and after infiltration of (50 nmoles in 100 μl) of 6-[2-(1(2)H-tetrazole-5-yl)ethyl]decahydroisoquinolone-3-carboxylic acid into the left hind paw (n=5). Responses were recorded before injection of 6-[2-(1(2)H-tetrazole-5-yl)ethyl]decahydroisoquinolone-3-carboxylic acid and at 15, 30 and 60 minutes after injection. This test was not blinded.

[5] = local infiltration of the drug in the incision; previously reported by this inventor; cited from earlier work
[6] = bupivacaine 0.75% 40 μl intrathecal
[7] = bupivacaine 0.75% 40 μl intrathecal, fifteen minutes after administration

SMILES | time at which all rats had recovered withdrawal to pinprick (rats [1]; [6]) | withdrawal to pinprick vs Pre (rats [1]; bupivacaine 0.75% 40 μl intrathecal, 15 minutes after injection, not eliminated in all tests) | time by which blood pressure and heart rate changes resolved (rats [2]; [6]) | heart rate change vs Pre (rats [2]; [7]) | mean arterial pressure change vs Pre (rats [2]; [7]) | greater inhibition of pinprick than bupivacaine (P<0.05) through (rats [1]; 5 nmoles intrathecal vs bupivacaine) | rats failed to respond to pin prick through (P<0.05 vs Pre) (rats [1]; 5 nmoles intrathecal, from 15 minutes) | recovery of pinprick response the next day (rats [1]; 5 nmoles intrathecal, next day) | change in blood pressure (rats [2]; 5 nmoles intrathecal) | change in heart rate (rats [2]; 5 nmoles intrathecal) | segmental blockade of the response to pinprick (rats [3]; 5 nmoles intrathecal) | evidence of sensory block of the forelimb (rats [3]; intrathecal, n=5, not blinded) | sensation to pinprick blocked below the chest in all rats through (rats [3]; intrathecal, n=5, not blinded) | sensation to pinprick blocked in the hindlimb through (rats [3]; intrathecal, n=5, not blinded) | change in withdrawal response to pinprick from baseline (rats [4]; 50 nmoles in 100 μl infiltrated into the hind paw, n=5) | rats withdrawing to pinprick (rats [4]; 50 nmoles in 100 μl into the hind paw, n=5, at 15, 30 and 60 minutes) | effect on pain after incision [5]
CCCCN1CCCCC1C(=O)Nc1c(C)cccc1C (centres unmarked) [Bupivacaine, Bupivacaine HCl] | 60 min | reduced | ≤ 30 min | increased | decreased | – | – | – | – | – | – | – | – | – | – | – | –
O=C(O)C1CC2CC(CCc3nnn[nH]3)CCC2CN1 (centres unmarked) [LY293558, 6-[2-(1(2)H-tetrazole-5-yl)ethyl]decahydroisoquinolone-3-carboxylic acid] | – | – | – | – | – | 3 h | 2 h | recovered fully | No change; also recorded: did not change | No change; also recorded: did not change | present | in only one test at 15 minutes | 90 min | 120 min | no change; also recorded: did not affect | All five rats withdrew | no effect

Source: patent publication US20030130308A1, “Drugs for spinal anesthesia” (priority 2001, published 2003)
